The values below are quoted from earlier work in patent US8791095B2, “Steroidal CYP17 inhibitors/antiandrogens” (Tokai Pharmaceuticals, Inc., priority 2009, dated 2014).

Each structure is given as a SMILES string.

In series [1] the target is T1, human CYP17 enzyme (Homo sapiens, UniProt P05093).
T1 sequence (P05093 1-508): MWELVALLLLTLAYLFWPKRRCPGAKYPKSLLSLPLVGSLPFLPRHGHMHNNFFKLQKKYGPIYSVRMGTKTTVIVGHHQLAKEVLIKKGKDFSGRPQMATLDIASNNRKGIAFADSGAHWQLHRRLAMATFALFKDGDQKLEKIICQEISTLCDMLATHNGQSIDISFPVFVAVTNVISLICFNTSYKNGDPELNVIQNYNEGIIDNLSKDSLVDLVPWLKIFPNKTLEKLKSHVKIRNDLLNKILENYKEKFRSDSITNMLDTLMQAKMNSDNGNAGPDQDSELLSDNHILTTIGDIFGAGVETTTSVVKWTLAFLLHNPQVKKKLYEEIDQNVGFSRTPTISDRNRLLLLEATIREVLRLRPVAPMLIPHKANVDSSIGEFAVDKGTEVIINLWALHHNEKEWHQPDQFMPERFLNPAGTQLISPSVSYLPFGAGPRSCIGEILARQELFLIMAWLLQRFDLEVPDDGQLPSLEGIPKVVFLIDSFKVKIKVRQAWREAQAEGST
Particulars: read-out: IC50, inhibition of human CYP17 enzyme.

Series [2] has as its system LAPC4 human prostate tumor xenograft. Particulars: for inhibition of growth of LAPC4 xenograft (in words): in vivo.

For orientation: IC50 means the concentration that gives 50% inhibition. `CC12CCC(O)CC1=CCC1C2CCC2(C)C(c3cncnc3)=CCC12` (stereo not drawn) [Compound 3, 3β-hydroxy-17-(5′-pyrimidyl)androsta-5,16-diene]: in series [1], the concentration for half-maximal inhibition (IC50) is 500 nM.
Regarding `C[C@]12CCC(=O)C=C1CCC1C2CC[C@]2(C)C(n3cnc4ccccc43)=CCC12` (stereo partly shown) [Compound 2, 17-(1H-benzimidazole-1-yl)androsta-4,16-diene-3-one], where the note is “mice, s.c. 50 mg/kg”, the peak plasma level is on record as 5.15 ng/mL, the “terminal half-life in plasma” value is on record as 39.93 min and the “detectability in plasma at 8 hours” value is on record as “neither was detectable”. The “inhibition of growth of LAPC4 xenograft (in words)” value in series [2] is “ineffective”.
With `C[C@]12CC[C@H](O)CC1=CC[C@@H]1[C@@H]2CC[C@]2(C)C(c3cccnc3)=CC[C@@H]12` [abiraterone, 3β-hydroxy-17-(pyrid-3-yl)androsta-5,16-diene], in series [1], the IC50 is 3 to 6 nM.
As to `C[C@]12CC[C@H](O)CC1=CC[C@@H]1[C@@H]2CC[C@]2(C)C(n3cnc4ccccc43)=CC[C@@H]12` [Compound 1, 3β-hydroxy-17-(1H-benzimidazole-1-yl)androsta-5,16-diene], in series [1], the IC50 was 50 nM. Besides, the “conversion into a metabolite” value (metabolite tentatively identified as 17-(1H-benzimidazol-1-yl)androsta-3-one) is recorded as “rapidly converted into a metabolite”. Also, where the note is “mice, s.c. 50 mg/kg”, the peak plasma level was 16.82 ng/mL and the “detectability in plasma at 8 hours” value was “neither was detectable”. Moreover, the “efficacy compared with castration” value in series [2] (50 mg/kg, twice daily) was “significantly more effective than castration”. Also, the “reduction in the mean final tumor volume compared with controls” value in series [2] (50 mg/kg, twice daily, P=0.00065) is reported as 93.8%. In series [2], the “inhibition of growth of LAPC4 xenograft (in words)” value is “very effective”.
